We go through 17 molecules from patent US9346801B2, “Substituted 7-oxo-pyrido[2,3-d]pyrimidines and methods of use” (AMGEN INC., priority 2013, dated 2016).

Holding throughout (format): cell-based
Test [1] deals with HCC827 (Δ746-750) NSCLC cells. The test can be described thus: Inhibition of proliferation of NSCLC cell lines, HCC827. Conditions: Homo sapiens, 72 h, Cell Titer Glow, read-out: HCC827 cell killing IC50. The method, then:
(§1) NSCLC cell lines H1975 (T790M/L858R), HCC827 (Δ746-750) and A549 (wild-type) were seeded in 96-well tissue culture plates (Corning, Lowell, Mass.) at 5,000 cells/well (H1975) and 4,000 cells/well (HCC827 and A549) in 95 μL of cell growth media overnight. Compounds starting at 10 mM concentration and diluted 8 times (4-fold dilutions) in DMSO were diluted 50 fold in RPM1 then 5 μL was added to cells. After 72 h, viable cell signal was quantified using Cell Titer Glow (Promega, Madison, Wis.) and a SpectraMax M5 plate reader (Molecular Devices, Sunnyvale, Calif.) per manufacturer's instructions. Final DMSO concentration in test and control wells was 0.1%. No DSMO effect was noted on cell growth.
Background: ATP-based viability assays read luminescence as a measure of living cells.

Test [2] has as its system H1975 (T790M/L858R) NSCLC cells. The test can be described thus: Inhibition of proliferation of NSCLC cell lines, H1975. Conditions: Cell Titer Glow; for IC50: Homo sapiens, NCI-H1975, 72 h, read-out: H1975 cell killing IC50; for H1975 cell killing IC50: 72 h. Here is the method: as §1
Test [3] addresses T1, T790M mutant EGFR phosphorylation in H1975 (T790M/L858R) NSCLC cells (Homo sapiens, UniProt P00533, L858R/T790M).
T1 construct: endogenous in cells; host or cells: H1975 NSCLC cells
Put plainly: Detection of pEGFR on NSCLC cell lines (MSD multiplex), H1975. The conditions noted are these: serum starved, 60 min compound. Here is the method: (§2) The effects of compounds on the phosphorylation of wild-type, T790M mutant, and Exon19 deletion (A746-750) EGFR were monitored using Mesoscalc™ multiplex assays (MSD), in which levels of phosphorylated EGFR protein were determined using total […] levels as a control. H1975 (T790M/L858R), HCC827 (Δ746-750) and A549 (wild-type EGFR) NSCLC cells were plated on 6-well tissue culture plates, serum starved for overnight and treated with 9 concentrations of compound starting at 2 μM (5-fold dilutions) for 60 min. Wild-type A549 cells were challenged with 100 ng/ml EGF for 15 min before collection. Cells were lysed according to manufacturer's instructions and lysates processed for analysis in the […]) multiplex plate reader.

In test [4] the target is T2, wild-type EGFR phosphorylation in A549 NSCLC cells (Homo sapiens, UniProt P00533).
T2 construct: Wild-type A549 cells were challenged with 100 ng/ml EGF for 15 min before collection; endogenous in cells; host or cells: A549 NSCLC cells
T2 sequence (P00533 25-1210): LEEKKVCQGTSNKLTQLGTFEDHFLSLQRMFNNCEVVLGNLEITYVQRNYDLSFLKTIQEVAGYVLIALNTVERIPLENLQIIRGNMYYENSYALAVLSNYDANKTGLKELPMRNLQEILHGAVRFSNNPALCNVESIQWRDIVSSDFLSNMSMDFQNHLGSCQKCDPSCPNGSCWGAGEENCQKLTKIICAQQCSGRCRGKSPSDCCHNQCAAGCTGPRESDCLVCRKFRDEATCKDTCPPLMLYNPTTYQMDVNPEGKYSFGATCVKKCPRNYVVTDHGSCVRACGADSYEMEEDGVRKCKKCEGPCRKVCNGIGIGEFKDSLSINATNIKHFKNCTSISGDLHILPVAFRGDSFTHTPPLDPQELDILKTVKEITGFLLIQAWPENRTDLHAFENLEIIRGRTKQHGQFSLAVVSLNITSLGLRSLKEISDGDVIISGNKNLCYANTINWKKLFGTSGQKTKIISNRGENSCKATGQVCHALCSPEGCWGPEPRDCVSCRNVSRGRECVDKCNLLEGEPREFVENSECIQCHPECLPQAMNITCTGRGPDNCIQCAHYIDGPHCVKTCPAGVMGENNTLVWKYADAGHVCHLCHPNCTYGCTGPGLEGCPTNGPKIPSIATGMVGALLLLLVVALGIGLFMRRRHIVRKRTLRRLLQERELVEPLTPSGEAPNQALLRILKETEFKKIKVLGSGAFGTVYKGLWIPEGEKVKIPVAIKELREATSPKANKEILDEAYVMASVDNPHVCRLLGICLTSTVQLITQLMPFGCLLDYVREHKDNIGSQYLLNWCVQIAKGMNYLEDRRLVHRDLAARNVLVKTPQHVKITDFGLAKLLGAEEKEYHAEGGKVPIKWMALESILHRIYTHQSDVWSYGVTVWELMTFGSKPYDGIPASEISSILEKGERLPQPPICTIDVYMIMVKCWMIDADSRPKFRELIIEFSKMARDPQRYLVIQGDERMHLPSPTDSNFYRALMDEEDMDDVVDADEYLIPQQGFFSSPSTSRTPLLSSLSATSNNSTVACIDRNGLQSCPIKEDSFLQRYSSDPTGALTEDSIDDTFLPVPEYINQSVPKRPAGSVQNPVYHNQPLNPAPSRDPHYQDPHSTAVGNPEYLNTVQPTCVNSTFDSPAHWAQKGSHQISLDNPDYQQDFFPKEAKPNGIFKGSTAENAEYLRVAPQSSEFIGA
Put plainly: Detection of pEGFR on NSCLC cell lines (MSD multiplex), A549. The conditions noted are these: 60 min compound, 100 ng/ml EGF for 15 min. Here is the method:
as §2

Test [5] deals with T3, Exon19 deletion (Δ746-750) EGFR phosphorylation in HCC827 NSCLC cells (Homo sapiens, UniProt P00533, DEL746-750).
T3 construct: endogenous in cells; host or cells: HCC827 NSCLC cells
T3 sequence (P00533 with tags, fused parts or gaps DEL746-750): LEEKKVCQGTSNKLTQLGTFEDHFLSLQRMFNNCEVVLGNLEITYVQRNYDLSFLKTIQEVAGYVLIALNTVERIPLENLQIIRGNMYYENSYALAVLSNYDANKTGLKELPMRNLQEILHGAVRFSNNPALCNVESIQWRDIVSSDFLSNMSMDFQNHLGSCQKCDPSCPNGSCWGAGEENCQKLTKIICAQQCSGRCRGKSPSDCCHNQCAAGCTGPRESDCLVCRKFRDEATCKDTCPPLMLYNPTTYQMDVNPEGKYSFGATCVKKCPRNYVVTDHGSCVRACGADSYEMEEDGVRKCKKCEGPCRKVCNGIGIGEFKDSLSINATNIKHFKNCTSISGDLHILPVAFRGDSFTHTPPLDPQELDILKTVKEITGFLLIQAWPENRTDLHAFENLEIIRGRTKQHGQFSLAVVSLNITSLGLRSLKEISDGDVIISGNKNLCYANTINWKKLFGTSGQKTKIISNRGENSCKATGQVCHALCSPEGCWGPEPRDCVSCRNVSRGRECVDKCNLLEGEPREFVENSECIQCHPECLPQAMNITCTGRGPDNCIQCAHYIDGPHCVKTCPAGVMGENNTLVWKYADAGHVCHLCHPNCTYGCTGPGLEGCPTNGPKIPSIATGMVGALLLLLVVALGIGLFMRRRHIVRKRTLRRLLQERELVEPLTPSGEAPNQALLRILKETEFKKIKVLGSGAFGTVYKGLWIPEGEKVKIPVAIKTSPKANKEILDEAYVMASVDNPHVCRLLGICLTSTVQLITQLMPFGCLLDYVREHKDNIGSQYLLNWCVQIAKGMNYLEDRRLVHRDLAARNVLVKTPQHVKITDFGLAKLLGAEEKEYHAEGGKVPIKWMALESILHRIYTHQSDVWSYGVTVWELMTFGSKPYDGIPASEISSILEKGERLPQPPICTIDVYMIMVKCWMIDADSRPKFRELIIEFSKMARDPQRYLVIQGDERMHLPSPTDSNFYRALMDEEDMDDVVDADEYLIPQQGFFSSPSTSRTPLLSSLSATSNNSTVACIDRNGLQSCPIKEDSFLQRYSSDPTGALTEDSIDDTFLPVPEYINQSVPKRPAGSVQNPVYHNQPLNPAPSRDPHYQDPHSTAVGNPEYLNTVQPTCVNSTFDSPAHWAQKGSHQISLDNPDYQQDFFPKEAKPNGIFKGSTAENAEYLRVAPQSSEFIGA
The test can be described thus: Detection of pEGFR on NSCLC cell lines (MSD multiplex), HCC827. Conditions: HCC827 (Δ746-750) cells, serum starved, 60 min compound. Here is the method:
as §2

T1 sequence (P00533 25-1210 T790M/L858R): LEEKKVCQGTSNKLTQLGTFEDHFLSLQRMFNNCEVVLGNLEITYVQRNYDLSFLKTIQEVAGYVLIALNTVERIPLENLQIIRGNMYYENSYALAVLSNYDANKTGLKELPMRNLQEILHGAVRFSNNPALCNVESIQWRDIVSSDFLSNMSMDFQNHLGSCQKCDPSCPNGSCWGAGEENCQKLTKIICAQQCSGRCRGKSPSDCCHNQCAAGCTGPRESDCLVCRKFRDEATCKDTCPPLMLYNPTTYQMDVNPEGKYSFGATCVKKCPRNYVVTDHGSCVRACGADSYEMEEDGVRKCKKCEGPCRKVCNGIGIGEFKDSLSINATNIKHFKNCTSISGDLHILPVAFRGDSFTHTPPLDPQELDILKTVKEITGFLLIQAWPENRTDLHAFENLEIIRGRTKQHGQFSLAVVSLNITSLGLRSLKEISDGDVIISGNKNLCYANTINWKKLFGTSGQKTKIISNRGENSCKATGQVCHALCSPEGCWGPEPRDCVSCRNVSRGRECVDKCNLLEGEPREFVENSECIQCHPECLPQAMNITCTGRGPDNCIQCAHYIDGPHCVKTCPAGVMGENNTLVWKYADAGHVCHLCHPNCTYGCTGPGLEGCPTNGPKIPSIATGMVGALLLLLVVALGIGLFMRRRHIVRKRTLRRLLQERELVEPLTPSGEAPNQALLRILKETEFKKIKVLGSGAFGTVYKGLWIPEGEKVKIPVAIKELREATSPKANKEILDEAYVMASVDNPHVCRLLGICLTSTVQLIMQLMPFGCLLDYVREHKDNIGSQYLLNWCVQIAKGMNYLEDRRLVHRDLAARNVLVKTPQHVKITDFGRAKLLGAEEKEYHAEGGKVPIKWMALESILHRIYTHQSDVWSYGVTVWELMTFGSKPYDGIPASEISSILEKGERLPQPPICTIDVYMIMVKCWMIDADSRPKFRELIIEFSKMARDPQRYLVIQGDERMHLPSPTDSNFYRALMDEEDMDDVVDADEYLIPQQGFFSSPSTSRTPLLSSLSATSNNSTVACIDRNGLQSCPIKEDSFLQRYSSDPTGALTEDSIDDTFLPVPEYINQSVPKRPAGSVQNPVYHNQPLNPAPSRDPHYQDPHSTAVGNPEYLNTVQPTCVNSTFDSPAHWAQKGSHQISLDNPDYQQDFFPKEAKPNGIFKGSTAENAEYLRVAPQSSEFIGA

Regarding `C=CC(=O)Nc1cccc(-n2c(=O)ccc3cnc(Nc4ccc(NC5CN(C(C)=O)C5)cc4OC)nc32)c1` [Example 14, N-(3-(2-((4-((1-acetylazetidin-3-yl)amino)-2-methoxyphenyl)amino)-7-oxopyrido[2,3-d]pyrimidin-8(7H)-yl)phenyl)acrylamide], the IC50 in test [1] stood at 24 nM; in test [2] it was 190 nM.
As for `C=CC(=O)Nc1cccc(-n2c(=O)cc(C)c3cnc(Nc4ccc(N5CCN(C)CC5)cc4OC)nc32)c1` [Example 5], the IC50 in test [3] was 2.8 nM; in test [4], 323 nM; in test [5] it was 8 nM; in test [1], 10 nM; in test [2], 4 nM.
Regarding `C=CC(=O)Nc1cccc(-n2c(=O)ccc3cnc(Nc4ccc(N5CCN(C)CC5)cc4)nc32)c1` [Example 4, N-(3-(2-((4-(4-methyl-1-piperazinyl)phenyl)amino)-7-oxopyrido[2,3-d]pyrimidin-8(7H)-yl)phenyl)-2-propenamide], the results for the IC50 in test [1] and in test [2] were 1 nM and 0.7 nM, respectively.
The corresponding values for `C=CC(=O)Nc1cccc(-n2c(=O)cc(C)c3cnc(Nc4ccc(NC5CN(CCF)C5)cc4OC)nc32)c1` [Example 16, N-(3-(2-((4-((1-(2-fluoroethyl)-3-azetidinyl)amino)-2-methoxyphenyl)amino)-5-methyl-7-oxopyrido[2,3-d]pyrimidin-8(7H)-yl)phenyl)-2-propenamide] are 18 nM and 22 nM.
With `C=CC(=O)Nc1cccc(-n2c(=O)ccc3cnc(Nc4ccc(N5CCN(C)CC5)cc4OC)nc32)c1` [Example 1, N-(3-(2-((2-methoxy-4-(4-methyl-1-piperazinyl)phenyl)amino)-7-oxopyrido[2,3-d]pyrimidin-8(7H)-yl)phenyl)-2-propenamide], the IC50 was 3.2 nM in test [3]; 76 nM in test [4]; 3.4 nM in test [5]; 4 nM in test [1]; 8 nM in test [2].
`C=CC(=O)Nc1cccc(-n2c(=O)cc(C)c3cnc(Nc4ccc(N5CCN(C)CC5)cc4)nc32)c1` [Example 17, N-(3-(5-methyl-2-((4-(4-methylpiperazin-1-yl)phenyl)amino)-7-oxopyrido[2,3-d]pyrimidin-8(7H)-yl)phenyl)acrylamide]: the IC50 came to 7.3 nM in test [1] and 3.6 nM in test [2].
Regarding `C=CC(=O)Nc1cccc(-n2c(=O)ccc3cnc(Nc4ccc(NC5CN(CCF)C5)cc4OC)nc32)c1` [Example 11, N-(3-(2-((4-((1-(2-fluoroethyl)-3-azetidinyl)amino)-2-methoxyphenyl)amino)-7-oxopyrido[2,3-d]pyrimidin-8(7H)-yl)phenyl)-2-propenamide], the IC50 in test [3] came to 6 nM; in test [4], 155 nM; in test [5], 5 nM; in test [1], 3 nM; in test [2], 9.6 nM.
With `COc1cc(N2CCN(C)CC2)ccc1Nc1ncc2ccc(=O)n(-c3cccc(NC(=O)/C=C/CN(C)C)c3)c2n1` [Example 9, (2E)-4-(dimethylamino)-N-(3-(2-((2-methoxy-4-(4-methyl-1-piperazinyl)phenyl)amino)-7-oxopyrido[2,3-d]pyrimidin-8(7H)-yl)phenyl)-2-butenamide], the IC50 in test [1] came to 53 nM; in test [2], 361 nM.
Take `C=CC(=O)Nc1ccc(F)c(-n2c(=O)ccc3cnc(Nc4ccc(N5CCN(C)CC5)cc4OC)nc32)c1` [Example 10, N-(4-fluoro-3-(2-((2-methoxy-4-(4-methyl-1-piperazinyl)phenyl)amino)-7-oxopyrido[2,3]pyrimidin-8(7H)-yl)phenyl)-2-propenamide]: the IC50 in test [3] was determined as 2 nM; in test [4], 84 nM; in test [1], 4 nM; in test [2], 4 nM.
Turning to `C=CC(=O)Nc1cccc(-n2c(=O)ccc3cnc(Nc4ccc(N5CCN(C)CC5)cc4Cl)nc32)c1` [Example 15, N-(3-(2-((2-chloro-4-(4-methyl-1-piperazinyl)phenyl)amino)-7-oxopyrido[2,3-d]pyrimidin-8(7H)-yl)phenyl)-2-propenamide], the IC50 is 3.5 nM in test [1] and 11 nM in test [2].
For the molecule `C=CC(=O)Nc1cccc(-n2c(=O)c(CC)cc3cnc(Nc4ccc(N5CCN(C)CC5)cc4OC)nc32)c1` [Example 6, N-(3-(6-ethyl-2-((2-methoxy-4-(4-methyl-1-piperazinyl)phenyl)amino)-7-oxopyrido[2,3-d]pyrimidin-8(7H)-yl)phenyl)-2-propenamide], the IC50 came to 4.3 nM in test [3], 8.2 nM in test [4] and 12 nM in test [2].
On to `C/C=C/C(=O)Nc1cccc(-n2c(=O)ccc3cnc(Nc4ccc(N5CCN(C)CC5)cc4OC)nc32)c1` [Example 3, (2E)-N-(3-(2-((2-methoxy-4-(4-methyl-1-piperazinyl)phenyl)amino)-7-oxopyrido[2,3-d]pyrimidin-8(7H)-yl)phenyl)-2-butenamide], for which the IC50 in test [1] was 126 nM; in test [2], 326 nM.
For the molecule `C=CC(=O)Nc1cccc(-n2c(=O)ccc3cnc(Nc4ccc(N5CCOCC5)cc4OC)nc32)c1` [Example 2, N-(3-(2-((2-methoxy-4-(4-morpholinyl)phenyl)amino)-7-oxopyrido[2,3-d]pyrimidin-8(7H)-yl)phenyl)-2-propenamide], the “H1975 cell killing IC50” value in test [2] was “undefined”.
`C=CC(=O)Nc1cccc(-n2c(=O)cc(C)c3cnc(Nc4ccc(N5CCOCC5)cc4OC)nc32)c1` [Example 7, N-(3-(2-((2-methoxy-4-(4-morpholinyl)phenyl)amino)-5-methyl-7-oxopyrido[2,3-d]pyrimidin-8(7H)-yl)phenyl)-2-propenamide]: the IC50 in test [1] is 2.81 nM. In test [2], the “H1975 cell killing IC50” value is “undefined”.
With `C=CC(=O)Nc1cccc(-n2c(=O)ccc3cnc(Nc4cnc(N5CCN(C)CC5)cc4OC)nc32)c1` [Example 8, N-(3-(2-((4-methoxy-6-(4-methyl-1-piperazinyl)-3-pyridinyl)amino)-7-oxopyrido[2,3-d]pyrimidin-8(7H)-yl)phenyl)-2-propenamide], the figures for the IC50 in test [1] and in test [2] were 21 nM and 92 nM, respectively.
The corresponding values for `COc1cc(N2CCN(C)CC2)ccc1Nc1ncc2ccc(=O)n(-c3cccc(NC(=O)CCN(C)C)c3)c2n1` [Example 13, 3-(dimethylamino)-N-(3-(2-((2-methoxy-4-(4-methylpiperazin-1-yl)phenyl)amino)-7-oxopyrido[2,3-d]pyrimidin-8(7H)-yl)phenyl)propanamide] are 76 nM and 128 nM.
For `COc1cc(N2CCN(C)CC2)ccc1Nc1ncc2ccc(=O)n(-c3cccc(NC(=O)CCl)c3)c2n1` [Example 12, 2-chloro-N-(3-(2-((2-methoxy-4-(4-methyl-1-piperazinyl)phenyl)amino)-7-oxopyrido[2,3-d]pyrimidin-8(7H)-yl)phenyl)acetamide], the IC50 in test [1] was 18 nM; in test [2], 680 nM.

One may read the IC50 as the concentration at which inhibition is half-maximal.
